This is an account of results in patent US20160193179A1, “Treatment of Cardiovascular Risk in Diabetic Patients” (EVOLVA SA, priority 2012, published 2016).

Series [1] deals with 6-keto PGF1α secretion by HUVEC. As to the kind of experiment: 6-keto PGF1α EIA, secretion by HUVEC. The series is classed as cell-based, human. Conditions: HUVEC 6 h. How it is done:
6-ketoPGF1α secretion is evaluated using a specific EIA assay. Results are expressed in picograms of 6-ketoPGF1α reported to micrograms of proteins measured by the Folin method on cell lysates. Data are means±S.D. (n=3). Statistical analysis: one way ANOVA followed by Bonferroni, Versus CTL, * p<0.05.
HUVEC are seeded at 25,000 cells/well on gelatin-coated 24-well plate (Corning) in EGM. After 48 h, cell medium is replaced by EBM containing or not containing Compound 3 at different concentrations. After 1 h of preincubation, 1 ng/ml TNFα is added or is not added to the wells. 6 h after adding TNFα, medium of each well is collected and cell lysis is performed in NaOH 0.5 N for 30 min. PTX3 secretion in the incubation medium is assayed using specific ELISAs (#DPTX30, Quantikine, R&D Systems, USA) according to the procedure provided by the supplier. 6-ketoPGF1α levels in cell culture media are determined using a competitive assay (#515211, Cayman, USA). Results are expressed in picograms of PTX3 or 6-ketoPGF1α reported to micrograms of proteins measured by the Folin method (Folin-Ciocalteu's phenol reagent, Merck, Germany) in cell lysates.

The subject of a further series is PARP cleavage in HUVEC. As to the kind of experiment: PARP-1 cleavage (apoptosis) by western blot in HUVEC. The format is cell-based, human. How it is done:
FIGS. 3C and 3D show the effect of Compound 3 on PARP cleavage induced by TNFα in HUVEC after 6 h of incubation. C) Total protein extracts are recovered and analysed by western blot. β-actin serves as the loading control. D) Quantification of optical density of each band and expression of the ratio between the optical density of PARP cleavage and the total of PARP.
HUVEC are seeded at 187,500 cells/flask in gelatin-coated T75 in EGM. After 4 days, cell medium is replaced by EBM containing or not containing Compound 3 at different concentrations. After 1 h of preincubation, 1 ng/ml TNFα is added or is not added into the T75 flasks. 6 h after, cell media are collected and centrifuged at 500 g for 5 min to pellet and pool floating cells with adherent cells. Adherent cells are washed twice with cold PBS and are collected in 1.5 ml of PBS. Harvested cells are then centrifuged at 500 g for 5 min at 4° C. […] Protein concentration is measured using Pierce method (Pierce 660 nm protein assay, Thermoscientific, USA) with the Ionic Detergent Compatibility Reagent (Thermoscientific, USA). […] Antibody binding was analysed with the scanner Odyssey Image System (Li-COR, Biosciences, USA) and Odyssey V3.0 software. Optical density of each band is also determined by using the software.
A general note: A western blot detects proteins with antibodies after separation by electrophoresis.

In series [2] the test system is human coronary artery smooth muscle cells. As to the kind of experiment: Human coronary artery smooth muscle cell proliferation (WST-1). Conditions: growth factor media; Compound 3 50 nM, 500 nM, 5 μM added 1 h before U46619; 48 h; WST-1. The format is cell-based. How it is done: Human coronary artery SMC is cultured in SmGM2 kit medium. At 80% confluence, the SMCs are trypsinized and resuspended in either DMEM supplemented with 2% FCS (“low serum media”), or in SmGM2 kit medium containing 5% FCS, 2 ng/ml FGF, 0.5 ng/ml EGF, 5 μg/ml insulin (“growth factor media”). Subsequently, 5000 cells in 200 μL are added to each well in a 96-well plate and left to adhere overnight. Either vehicle or Compound 3 (50 nM, 500 nM, 5 μM) is added to the wells 1 h before U 46619 at different concentrations (0.1 nM to 10 μM) and incubated for another 48 h. All experiments are repeated 3-5 times for each experimental condition.
Cell proliferation is evaluated using WST-1 reagent according to the manufacturer's instructions. In brief, after replacement of phenol red containing media by 200 μL transparent serum-supplemented DMEM, 10 μL of diluted WST-1 reagent is added to each well at the end of the 48 h incubation period. After 1 h incubation at 37° C., the absorbance of the formazan dye formed is measured at 440 nm using a microplate reader.
All results are expressed as mean±SE. Statistically significant differences are determined by a one-way analysis of variances, followed by Holm-Sidak post hoc test, for multiple comparisons, using Sigma Stat software. A P value of less than 0.05 is considered significant.

As for `CC(C)(C)N.O=C(O)CC/C=C\C[C@@H]1CO[C@H](c2ccccc2Cl)O[C@@H]1c1ccccc1O` [Compound 3, tert-butylammonium (Z)-6-((2S,4S,5R)-2-(2-chlorophenyl)-4-(2-hydroxyphenyl)-1,3-dioxan-5-yl)hex-4-enoate], the “6-keto PGF1α secretion” value is given as “significant increase” in series [1] (600 nM Compound 3 together with 1 ng/ml TNFα) and “do not increase” in series [1] (Compound 3 alone, without TNFα). For the same compound, the “induction of apoptosis (PARP cleavage) by the compound itself” value in the series with PARP cleavage in HUVEC (HUVEC 6 h, without TNFα) was “does not induce apoptosis”. The “PARP cleavage induced by TNFα” value in the series with PARP cleavage in HUVEC (HUVEC, TNFα 6 h, western blot) was “does not decrease”. For the same compound, the “SMC proliferation induced by U46619” value in series [2] is “significantly and concentration-dependently inhibits”.
